Reference: patent US20250212875A1, “PESTICIDAL AND HERBICIDAL COMPOUNDS AND METHODS OF USE THEREOF” (AG PLENUS LTD, priority 2022, published 2025)

Key:
Setaria viridis = test: LTP post-emergence greenhouse screen
Protocol: (§4) A basic panel of eight weed species (Table 3) sowed in 4×4×7 cm plastic pots containing a garden mix (klasmann). Each specie was sowed in a separate pot. In each pot, 10-15 seeds were sowed according to the specie viability. Timing of application determined at a 1-2 true leaf stage. The plants grew for 30 days in a controlled greenhouse (26±2° C. day, 20±2° C. night). Flood irrigation (tap water+Shefer 5:3:8 8 mM) was given at a 50% water content by weight. Two days before application, the tested plants thinned down to three plants per pot. Compounds were soluble in water (DDW), and commercial herbicide control was soluble in formulation B (Table 4). Before application, 1% (v/v) crop oil and 0.02% (v/v) surfactant (Tergitol™ 15-S-7) were added to the solution. Application was conducted with an industrial sprayer (TeeJet 6502E nozzle) at a rate of 2 kg/ha and spray volume of 4801/ha. Plants were evaluated at 3 time points (4, 8, 12 days after application (DAA)). At each time point, visual phenotyping was recorded using a scale of 0-6 (0: no visible effect, 6: maximum effect). At 12 DAA, plants foliage was harvested, dried and weighed for dry weight analysis.
(§5) Post-emergence advanced wide panel experiment included 24 weed species (Table 5). Application was conducted at 2 rates of 2 kg/ha and 0.25 kg/ha and spray volume of 480 l/ha. Visual phenotyping was recorded at 4, 11, 17 and 20 DAA using a scale of 0-6 (0: no visible effect, 6: maximum effect). At 21 DAA, plants foliage was harvested, dried, and weighed for dry weight analysis. All experiments included an untreated control, a solvent control, and a positive control (commercial herbicide A.I.). Statistical analysis for visual phenotyping determined by a median value of ≥3.5 and Fisher test (pval≤0.05). Statistical analysis for dry weight determined by % inhibition ≥50 and T test (pval≤0.05), as well as Wilcox test (pval≤0.05).

Alopecurus monureide's = test: LTP post-emergence greenhouse screen
Protocol: as §4, §5

[1] = system: monocot and dicot model plants; test: HTPS model plants, summary in words; assay type: in vivo; settings: HTPS systems where they were tested
Protocol: Arabidopsis thaliana seeds were sown in 96 well plates filled with irrigated Sweet sand (10%>clay) that is washed from salts and minerals using tap water. 5-10 seeds were sown in the center of each well. 7-8 days post sowing, at 2 true leaves stage, thinning out was performed to ensure that compound application is done on a single plant per well. The plates were placed in a controlled greenhouse in a random order inside a bath which allows flooding irrigation with tap water supplemented with a fertilizer. Applied compounds were dissolved into a final solution of 50% acetone, 49.9% DDW, 0.1% tween-20.
A 96 well plate was used as a stock plate for preparing application solutions for 8 repeats. Each row contained different concentrations per chemical. Maximal concentration for application was 1.5 kg/ha and dilution factor is 2.5. Chemical application was performed one day after thinning out in a chemical hood. 5 μL applied on first two true leaves in each well using 12 channel pipettes. […]
(§1) Compounds 101, 110, 112, 119, 124, 125, 146, 154, 157, 172, 170, 169, 112, and 166 were applied in either or both pre- and post-emergence mode to either or both monocot and dicot model plants, following the methods described above. The compounds were applied as a gradient of concentrations as listed above, from which the ED50 was calculated.

Poa annua [2] = test: LTP post-emergence greenhouse screen
Protocol: as §4, §5

Lolium multiflorum [3] = test: LTP post-emergence greenhouse screen
Protocol: (§6) A basic panel of eight weed species (Table 3) sowed in 4×4×7 cm plastic pots containing a garden mix (klasmann). Each specie was sowed in a separate pot. In each pot, 10-15 seeds were sowed according to the specie viability. Timing of application determined at a 1-2 true leaf stage. The plants grew for 30 days in a controlled greenhouse (26±2° C. day, 20±2° C. night). Flood irrigation (tap water+Shefer 5:3:8 8 mM) was given at a 50% water content by weight. Two days before application, the tested plants thinned down to three plants per pot. Compounds were soluble in water (DDW), and commercial herbicide control was soluble in formulation B (Table 4). Before application, 1% (v/v) crop oil and 0.02% (v/v) surfactant (Tergitol™ 15-S-7) were added to the solution. […] Plants were evaluated at 3 time points (4, 8, 12 days after application (DAA)). At each time point, visual phenotyping was recorded using a scale of 0-6 (0: no visible effect, 6: maximum effect). […]
(§7) All experiments included an untreated control, a solvent control, and a positive control (commercial herbicide A.I.). Statistical analysis for visual phenotyping determined by a median value of ≥3.5 and Fisher test (pval≤0.05). Statistical analysis for dry weight determined by % inhibition ≥50 and T test (pval≤0.05), as well as Wilcox test (pval≤0.05).

Arabidopsis thaliana = test: HTPS post-emergence on miniature dicot model plants; assay type: in vivo; settings: green area (RGB), maximal concentration 1.5 kg/ha, read-out: Max inhibition (%)
Protocol: Arabidopsis thaliana seeds were sown in 96 well plates filled with irrigated Sweet sand (10%>clay) that is washed from salts and minerals using tap water. 5-10 seeds were sown in the center of each well. 7-8 days post sowing, at 2 true leaves stage, thinning out was performed to ensure that compound application is done on a single plant per well. The plates were placed in a controlled greenhouse in a random order inside a bath which allows flooding irrigation with tap water supplemented with a fertilizer. Applied compounds were dissolved into a final solution of 50% acetone, 49.9% DDW, 0.1% tween-20. A 96 well plate was used as a stock plate for preparing application solutions for 8 repeats. Each row contained different concentrations per chemical. Maximal concentration for application was 1.5 kg/ha and dilution factor is 2.5. Chemical application was performed one day after thinning out in a chemical hood. 5 μL applied on first two true leaves in each well using 12 channel pipettes. Data collection: RGB (red, green, blue) data for green area per well was documented using camera. Data is collected at a few time points during the experiment: one day after thinning and before chemical application, two-, six- or nine-days post application. During the last two documentations, visual phenotyping was performed. Data analysis: Given RGB results and visual phenotype scores, a student t-test conducted to compare between treatment and control performance for continuous data (RGB) and Fisher exact test to analyze the non-continuous data (phenotypic scores). Dose-Response curves are generated for each treatment to infer ED50 and max. inhibition parameters, using treatment's log concentration range as the […] variable and normalized green area. Plate imaging performed at 11 and 18 DAA. RGB data for green area per well was documented and used to extract % inhibition. Dose-Response curves were built for each treatment to infer EC50, EC75 and EC90 parameters, using treatment's log concentration range as the independent variable and normalized green area as the dependent variable. Treatments were compared to controls performance given RGB results and using student's t-test (p-val≤0.05). Compounds 101, 110, 112, 119, 124, 125, 146, 154, 157, 172, 170, 169, 112, and 166 were applied in either or both pre- and post-emergence mode to either or both monocot and dicot model plants, following the methods described above. The compounds were applied as a gradient of concentrations as listed above, from which the ED50 was calculated.

Echinochloa colona [4] = test: LTP post-emergence greenhouse screen
Protocol: as §4, §5

Alopecurus myosuroides = test: LTP pre-emergence greenhouse screen; assay type: in vivo
Protocol: (§2) Sowing was performed one day before application.
(§3) Percentage of emergence was evaluated at 15 DAA.

Lolium multiflorum [5] = test: LTP pre-emergence greenhouse screen; assay type: in vivo
Protocol: as §2, §3

Echinochloa colona [6] = test: LTP pre-emergence greenhouse screen; assay type: in vivo
Protocol: as §2, §3

Digitaria sanguinalis [7] = test: LTP pre-emergence greenhouse screen; assay type: in vivo
Protocol: as §2, §3

Echinochloa crus-galli [8] = test: LTP pre-emergence greenhouse screen; assay type: in vivo
Protocol: as §2, §3

Phalaris paradoxa = test: LTP pre-emergence greenhouse screen; assay type: in vivo
Protocol: as §2, §3

Lolium perenne [9] = test: LTP pre-emergence greenhouse screen; assay type: in vivo
Protocol: as §2, §3

Poa annua [10] = test: LTP pre-emergence greenhouse screen; assay type: in vivo
Protocol: as §2, §3

Digitaria sanguinalis [11] = test: LTP post-emergence greenhouse screen
Protocol: as §4, §5

Echinochloa crus-galli [12] = test: LTP post-emergence greenhouse screen
Protocol: as §4, §7

[13] = system: monocot and eudicot weeds species; test: LTP weed panel, summary in words; assay type: in vivo; settings: for growth inhibition (in words): mainly in pre-emergence applications
Lolium perenne [14] = test: LTP post-emergence greenhouse screen
Protocol: as §6, §7

Amaranthus tuberculatus = test: LTP post-emergence greenhouse screen; assay type: in vivo
Amaranthus palmeri [15] = test: LTP pre-emergence greenhouse screen; assay type: in vivo
Protocol: as §2, §3

Matricaria chamomilla = test: LTP pre-emergence greenhouse screen; assay type: in vivo
Protocol: as §2, §3

Galium aparine = test: LTP post-emergence greenhouse screen
Protocol: as §6, §7

Amaranthus palmeri [16] = test: LTP post-emergence greenhouse screen
Protocol: as §6, §7

Eragrostis teff = test: HTPS pre-emergence on monocot model plants; assay type: in vivo; settings: green area (RGB)
Protocol: A 96 well plate was used as a stock plate for preparing application solutions for 8 repeats. Each row contained different concentrations per chemical. Maximal concentration for application was 1.5 kg/ha and dilution factor is 2.5. Chemical application was performed one day after thinning out in a chemical hood. 5 μL applied on first two true leaves in each well using 12 channel pipettes. Data collection: RGB (red, green, blue) data for green area per well was documented using camera. Data is collected at a few time points during the experiment: one day after thinning and before chemical application, two-, six- or nine-days post application. During the last two documentations, visual phenotyping was performed. Data analysis: Given RGB results and visual phenotype scores, a student t-test conducted to compare between treatment and control performance for continuous data (RGB) and Fisher exact test to analyze the non-continuous data (phenotypic scores). Dose-Response curves are generated for each treatment to infer ED50 and max. inhibition parameters, using treatment's log concentration range as the […] variable and normalized green area.
These experiments are conducted similarly except that either Arabidopsis thaliana or Eragrostis teff seeds were sowed (5-10 or 5-7, respectively), plant thinning out was not performed, compound dissolved into a final solution of 50% acetone, 49.9% DDW, compound application was done at 30 μL volume per well directly on sowed soil before plant emergence and data was collected 10 or 7 days after chemical application on dicot or monocot plants, respectively.
Plate imaging performed at 11 and 18 DAA. RGB data for green area per well was documented and used to extract % inhibition. […]
as §1

Amaranthus retroflexus = test: LTP pre-emergence greenhouse screen; assay type: in vivo
Protocol: as §2, §3

CC(O)C(N)C/C=C/CC(=O)O (stereo not shown) [Compound 101]
DAB: disturbed apical bud (Setaria viridis): IG (60), DAB (60) | IG: inhibited growth (Setaria viridis): IG (60), DAB (60) | Bl: bleaching (Alopecurus monureide's): 60 | DAB: disturbed apical bud (Alopecurus monureide's): IG (80), DAB (80), | Drd: disturbed root growth (Alopecurus monureide's): 80 | IG: inhibited growth (Alopecurus monureide's): IG (80), DAB (80), | control (in words) [1]: excellent to very good control | Drd: disturbed root growth (Poa annua [2]): IG (80), Drd (80) | IG: inhibited growth (Poa annua [2]): IG (80), Drd (80) | Drd: disturbed root growth (Lolium multiflorum [3]): Drd (60) | inhibition at up to 1500 g/ha (Arabidopsis thaliana): 100% | DAB: disturbed apical bud (Echinochloa colona [4]): 60 | Drd: disturbed root growth (Echinochloa colona [4]): Drd (80) | IG: inhibited growth (Echinochloa colona [4]): 80 | IG: inhibited growth (Alopecurus myosuroides): IG (80) | IG: inhibited growth (Lolium multiflorum [5]): IG (100) | IG: inhibited growth (Echinochloa colona [6]): IG (100) | IG: inhibited growth (Digitaria sanguinalis [7]): IG (100) | IG: inhibited growth (Echinochloa crus-galli [8]): IG (100) | IG: inhibited growth (Phalaris paradoxa): IG (80) | IG: inhibited growth (Lolium perenne [9]): IG (80) | IG: inhibited growth (Poa annua [10]): IG (100) | DAB: disturbed apical bud (Digitaria sanguinalis [11]): IG (80), DAB (80), | Drd: disturbed root growth (Digitaria sanguinalis [11]): Drd (80) | IG: inhibited growth (Digitaria sanguinalis [11]): IG (80), DAB (80), | DAB: disturbed apical bud (Echinochloa crus-galli [12]): 60 | Drd: disturbed root growth (Echinochloa crus-galli [12]): Drd (80) | IG: inhibited growth (Echinochloa crus-galli [12]): 80 | control of weeds (in words) ([13]; monocot and eudicot weeds species, post-emergence and pre-emergence, most of the species tested): excellent control | Drd: disturbed root growth (Lolium perenne [14]): 80 | IG: inhibited growth (Lolium perenne [14]): 60

C[C@@H](O)[C@@H](N)/C=C/C=C/C(=O)O [Compound 110]
Drd: disturbed root growth (Amaranthus tuberculatus): Drd (80) | control (in words) [1]: excellent to very good control | inhibition at up to 1500 g/ha (Arabidopsis thaliana): 100% | IG: inhibited growth (Amaranthus palmeri [15]): IG (80) | IG: inhibited growth (Matricaria chamomilla): IG (60) | IG: inhibited growth (Poa annua [10]): IG (60) | Bl: bleaching (Galium aparine): Bl (60) | activity on dicots and monocots (in words) ([13]; applied pre-emergence): good to moderate activity

NC1CCC/C(=C\CCC(=O)O)C1 (stereo not shown) [Compound 119]
inhibition at up to 1500 g/ha (Arabidopsis thaliana): 100% | IG: inhibited growth (Echinochloa colona [6]): IG (60) | IG: inhibited growth (Amaranthus palmeri [15]): IG (80) | growth inhibition (in words) [13]: very good to moderate growth inhibition

NC1CCCC(/C=C/CC(=O)O)C1 (stereo not shown) [Compound 124]
inhibition at up to 1500 g/ha (Arabidopsis thaliana): 100% | IG: inhibited growth (Alopecurus myosuroides): IG (80) | IG: inhibited growth (Echinochloa colona [6]): IG (100) | IG: inhibited growth (Amaranthus palmeri [15]): IG (80) | IG: inhibited growth (Poa annua [10]): IG (100) | growth inhibition (in words) [13]: very good to moderate growth inhibition

NC1(C/C=C/CC(=O)O)CCC1 [Compound 125]
IG: inhibited growth (Setaria viridis): IG (60) | IG: inhibited growth (Amaranthus palmeri [16]): IG (60) | IG: inhibited growth (Poa annua [2]): IG (60) | inhibition at up to 1500 g/ha (Arabidopsis thaliana): 100% | IG: inhibited growth (Alopecurus myosuroides): IG (60) | IG: inhibited growth (Amaranthus palmeri [15]): IG (80) | IG: inhibited growth (Matricaria chamomilla): IG (60) | IG: inhibited growth (Lolium perenne [9]): IG (80) | IG: inhibited growth (Poa annua [10]): IG (100) | growth inhibition (in words) [13]: very good to moderate growth inhibition

NC(C/C=C/CC(=O)O)C1CC1 (stereo not shown) [Compound 146]
Max inhibition (%) (Eragrostis teff): 100% | inhibition at up to 1500 g/ha (Arabidopsis thaliana): 100% | IG: inhibited growth (Alopecurus myosuroides): IG (60) | IG: inhibited growth (Amaranthus palmeri [15]): IG (80) | IG: inhibited growth (Poa annua [10]): IG (60) | growth inhibition (in words) [13]: very good to moderate growth inhibition

NC1CCCC(C#CCC(=O)O)C1 (stereo not shown) [Compound 154]
inhibition at up to 1500 g/ha (Arabidopsis thaliana): 100% | IG: inhibited growth (Alopecurus myosuroides): IG (80) | IG: inhibited growth (Echinochloa colona [6]): IG (100) | IG: inhibited growth (Amaranthus palmeri [15]): IG (80) | IG: inhibited growth (Poa annua [10]): IG (100) | growth inhibition (in words) [13]: very good to moderate growth inhibition

CC(C)C(N)C/C=C/CC(=O)O (stereo not shown) [Compound 157]
inhibition at up to 1500 g/ha (Arabidopsis thaliana): 100%

CCCC(N)C/C=C/CC(=O)O (stereo not shown) [Compound 166]
Max inhibition (%) (Eragrostis teff): 47% | inhibition at up to 1500 g/ha (Arabidopsis thaliana): 75%

CC(N)CC/C=C/CC(=O)O (stereo not shown) [Compound 169]
inhibition at up to 1500 g/ha (Arabidopsis thaliana): 100% | IG: inhibited growth (Amaranthus retroflexus): IG (80)

CC(N)CCC/C=C/C(=O)O (stereo not shown) [Compound 170]
inhibition at up to 1500 g/ha (Arabidopsis thaliana): 100% | IG: inhibited growth (Amaranthus retroflexus): IG (90)

CC(O)C(N)/C=C/CCC(=O)O (stereo not shown) [Compound 172]
inhibition at up to 1500 g/ha (Arabidopsis thaliana): 100%
